# Entries after “also recorded” stand apart in the source; their conditions may differ. Structures can show the parent of a compound that is named as a salt.
# What was measured:
# [1] = test system: Pregnant C57BL/6 mice; assay: treatment of healthy control mice (no LPS administration); assay type: in vivo; conditions: 1.5 mg/mouse intraperitoneal every 24 hours
# Method: (§1) Provided in FIGS. 8A and 8B are an experimental schematic and results of tocolytic compound treatment in mouse models of severe preterm birth. In separate experiments, pregnant C57BL/6 mice were intraperitoneally administered 3 mg/kg LPS (Escherichia coli 0127:B8, chromatographically pure, Sigma-Aldrich) or PBS (as control) on D15. Treated mice were then treated with either intraperitoneal injections of vehicle or androstane-3,17-diol (1.5 mg/mouse). The androstane-3,17-diol group received […] via intraperitoneal injections every 24 hours, up to 3 days before delivery. One-third (33%) of LPS-induced preterm mice treated with androstane-3,17-diol reached full term.
# [2] = test system: Pregnant C57BL/6 mice; assay: mouse model of moderate preterm birth (2 mg/kg LPS); assay type: in vivo; conditions: for gestation in vivo: 2 mg/kg LPS on D15, compounds intraperitoneal every 8 hours beginning 8 hours after LPS
# Method: Provided in FIGS. 6A and 6B are an experimental schematic and results of compound treatment in mouse models of moderate preterm birth. Pregnant C57BL/6 mice were intraperitoneally administered 2 mg/kg LPS (Escherichia coli 0127:B8, chromatographically pure, Sigma-Aldrich) or PBS (as control) on D15. Mice were then treated with either intraperitoneal injections of vehicle (100 μl, 30% DMSO in pharmaceutical sesame oil), DHEA-S(first two doses at 0.8 mg/mouse, later doses at 0.4 mg/mouse, 100 μl), THDOC (first two doses at 0.8 mg/mouse, later doses at 0.4 mg/mouse, 100 μl), estriol-16-glucuronide (first two doses at 0.8 mg/mouse, later doses at 0.4 mg/mouse, 100 μl), androstane-3,17-diol (1.5 mg/mouse, 100 μl), Androstane-3,17-diol+progesterone (each at 0.75 mg/mouse, 100 μl), or DHEA-S+androstane-3,17-diol+progesterone (androstane-3,17-diol and progesterone each at 0.75 mg/mouse, DHEA-S at 0.27 mg/mouse for the first two doses and then 0.13 mg/mouse for the later does, 100 μl). Compound groups received the compounds via intraperitoneal injections every 8 hours, beginning 8 hours after LPS administration, up to 4 doses, and then after 12 hours before delivery.
# [3] = test system: uterine muscle strips from pregnant WT mice; assay: myography of uterine muscle strips, oxytocin dose-response; parameters: species or system mouse; conditions: D18 strips
# Method: (§2) Uterine muscle strips were extracted from pregnant mice and were assessed for contractibility via myography. Timed-pregnant wild-type C57/B6 mice were euthanized before making a vertical midline abdominal incision and removing each of the two uterine horns. Uterine horns were subsequently cut into 3-mm×7-mm segments and placed in a modified Krebs buffer (118 mM NaCl, […], 1.2 mM MgSO4, 1.2 mM KH2PO4, 2.5 mM CaCl2), 25 mM NaHCO3, and 11 mM glucose, pH 7.4). Muscle segments were vertically suspended on custom-made stainless steel hooks inside an organ bath filled with modified Krebs buffer, maintained at 37° C., and aerated with gas containing 95% O2 and 5% CO2. The strips were allowed to equilibrate at 1.5 g of tension for 45 min.
# For the oxytocin dose-response experiments, the strips were then stimulated with oxytocin at concentrations ranging from 1 to 1000 nM, and the pattern of contraction in response to each dose was recorded for 9 min. The muscle strips were washed with Krebs solution twice and allowed to equilibrate for 3 min before the next stimulation. In separate experiments, strips were treated with the compounds before assessing the dose response to oxytocin. Contraction tracings were recorded using PowerLab and LabChart (ADInstruments).
# Provided in FIGS. 5B and 5C are results of a myography experiment measuring spontaneous contractions induced by oxytocin. Myography of uterine muscle strips from pregnant WT mice at D18 was performed while incubating the strips with increasing doses of oxytocin in the presence of 1 μM Androstane-3,17-diol (black squares) or vehicle (black circles), n=4 to 7. The results are provided as old increase in area under the curve AUC (FIG. 5B), and amplitude (FIG. 5C) from baseline spontaneous contractions with vehicle and Androstane-3,17-diol. […]
# [4] = test system: Pregnant C57BL/6 mice; assay: mouse model of severe preterm birth (3 mg/kg LPS); assay type: in vivo; conditions: 3 mg/kg LPS on D15
# Method: Provided in FIG. 7 is an experimental schematic of compound treatment in mouse models of severe preterm birth. In separate experiments, pregnant C57BL/6 mice were intraperitoneally administered 3 mg/kg LPS (Escherichia coli 0127:B8, chromatographically pure, Sigma-Aldrich) or PBS (as control) on D15. Treated mice were then treated with either intraperitoneal injections of vehicle (200 μl, 15% DMSO in pharmaceutical sesame oil) or androstane-3,17-diol (1.5 mg/mouse, 200 μl) every 12 hours, up to 5 doses before delivery.
# as §1
# [5] = test system: human uterine smooth muscle cells; assay: collagen gel contraction assay; assay type: cell-based
# [6] = test system: uterine muscle strips from pregnant WT mice; assay: myography of uterine muscle strips, spontaneous contraction; parameters: species or system mouse
# Method: as §2
# Provided in FIG. 5A are results of a myography experiment measuring spontaneous contraction. Myography of uterine muscle strips from pregnant WT mice at D18 was performed while incubating the strips with oxytocin (OXY), Vehicle, 0.25 μM μM of DHEA-S, 1 μM of THDOC, 1 μM of estriol-16-glucuronide, or 1 μM of androstane-3,17-diol. The area under the curve was calculated for the final 180 s of each 9-min contraction tracing using GraphPad Prism (GraphPad Prism for Macintosh version 5.0; GraphPad Software). The area under the curve for each response was then normalized to the area under the curve of the baseline.
# Provided in FIG. 5E are myography tracings recorded with various compound applications: 10 μM progesterone, 1 μM Androstane-3,17-diol, 0.5 μM Androstane-3,17-diol+5 μM progesterone, and 0.33 μM Androstane-3,17-diol+0.33 μM THDOC+3.3 μM progesterone. Left of the arrow is baseline contraction and to the right of the arrow indicates when the compounds were applied. […] Note that there was no obvious effect when treating the muscle with 1 μM progesterone (data not shown).
# [7] = 2 mg/kg LPS on D15, compounds intraperitoneal
smiles,measurement,setting,value
"C[C@]12CC[C@@H](O)C[C@@H]1CC[C@@H]1[C@@H]2CC[C@]2(C)[C@@H](O)CC[C@@H]12 (stereo in doubt) [androstane-3,17-diol]",gestation period,[1],increased gestation period beyond the typical date of delivery
same,birth outcome of preterm model females,[2]; [7],Full-term live pups were birthed
same,comparison of gestation results between treatment groups,[2]; [7],most significant results
same,gestation in vivo,[2],prolonged gestation in vivo
same,effect on oxytocin-induced uterine contractility (AUC and amplitude from baseline),"[3]; increasing doses of oxytocin, 1 μM Androstane-3,17-diol",reduced; also recorded: inhibits uterine muscle contraction with oxytocin stimulation
same,mice that reached full-term,"[4]; 1.5 mg/mouse intraperitoneal every 12 hours, up to 5 doses",1/3
same,appearance of mom and pups,"[4]; 1.5 mg/mouse intraperitoneal every 12 hours, the mouse that reached full-term",both mom and pups looked healthy
same,LPS-induced preterm mice that reached full term,"[4]; 1.5 mg/mouse intraperitoneal every 24 hours, up to 3 days",33%
same,ability to mitigate collagen retraction (gel surface area relative to no cell control),"[5]; oxytocin 100 nM, 18 hours, 2.5 μM DHEA-S, 10 μM THDOC, 10 μM estriol-16-glucuronide, 10 μM androstane-3,17-diol, 2 mM progesterone",provided the best results
same,muscle contractility in myography tracings,"[6]; 1 μM Androstane-3,17-diol",rapid inhibition of the muscle contraction
same,suppression of uterine contractility (area under the curve normalized to baseline),"[6]; D18 strips, 0.25 μM DHEA-S, 1 μM THDOC, 1 μM estriol-16-glucuronide, 1 μM androstane-3,17-diol",most significant inhibition effect
"C[C@]12CC[C@H](OS(=O)(=O)O)CC1=CC[C@@H]1[C@@H]2CC[C@]2(C)C(=O)CC[C@@H]12 [DHEA-S, dehydroisoandrosterone sulfate]",birth outcome of preterm model females,[2]; [7],Full-term live pups were birthed
same,gestation in vivo,[2],prolonged gestation in vivo
"CC[C@H](C)[C@@H]1NC(=O)[C@H](Cc2ccc(O)cc2)NC(=O)[C@@H](N)CSSC[C@@H](C(=O)N2CCC[C@H]2C(=O)N[C@@H](CC(C)C)C(=O)NCC(N)=O)NC(=O)[C@H](CC(N)=O)NC(=O)[C@H](CCC(N)=O)NC1=O [Oxytocin, oxytocin, reference compound]","uterine contractility (AUC, amplitude)","[3]; oxytocin 1 to 1000 nM, vehicle",induced a dose-dependent increase in uterine contractility
"C[C@]12CC[C@@H](O)C[C@H]1CC[C@@H]1[C@@H]2CC[C@]2(C)[C@@H](C(=O)CO)CC[C@@H]12 [THDOC, tetrahydrodeoxycorticosterone]",gestation in vivo,[2],prolonged gestation in vivo
"CC(=O)[C@H]1CC[C@H]2[C@@H]3CCC4=CC(=O)CC[C@]4(C)[C@H]3CC[C@]12C [progesterone, reference compound]",effect on uterine muscle contraction with oxytocin stimulation,"[3]; increasing doses of oxytocin, 10 μM progesterone, n=3",but progesterone inhibits uterine muscle contraction
same,ability to mitigate collagen retraction,"[5]; progesterone at the same concentration as androstane-3,17-diol (10 μM)",no effect
same,muscle contractility in myography tracings,[6]; 1 μM progesterone,no effects
same,muscle contractility in myography tracings,[6]; 10 μM progesterone,first enhanced and then gradually suppressed in peak height

# — patent US20220339176A1, “Methods of Treatments to Prolong Gestation and Complications of Menstruation or Gestation” (priority 2019, published 2022)
